Values quoted from earlier work as cited in patent US20140057987A1, “Disinfectant Spray with Indicator” (GENESIS LABORATORIES, INC., priority 2010, published 2014).
Read-outs that look alike come from different tables or passages of the source.

Compound	Transition pH range (colour change of indicator)	further results
O=C(O)c1cc(N=Nc2ccc([N+](=O)[O-])cc2)ccc1O [Alizarine Yellow R]	10.2-12.0 pH	–
Cc1c(C2(c3cc(Br)c(O)c(Br)c3C)OS(=O)(=O)c3ccccc32)cc(Br)c(O)c1Br [Bromocresol green]	3.8-5.4 pH	–
Cc1cc(C2(c3cc(C)c(O)c(Br)c3)OS(=O)(=O)c3ccccc32)cc(Br)c1O [Bromocresol purple]	5.2-6.8 pH	–
O=S1(=O)OC(c2cc(Br)c(O)c(Br)c2)(c2cc(Br)c(O)c(Br)c2)c2ccccc21 [Bromophenol blue]	3.0-4.6 pH	–
Cc1c(C2(c3cc(C(C)C)c(O)c(Br)c3C)OS(=O)(=O)c3ccccc32)cc(C(C)C)c(O)c1Br [Bromothymol blue]	6.0-7.6 pH	–
Nc1c(/N=N/c2ccc(-c3ccc(/N=N/c4cc(S(=O)(=O)O)c5ccccc5c4N)cc3)cc2)cc(S(=O)(=O)O)c2ccccc12 [Congo red]	3.0-5.0 pH	–
Cc1cc(C2(c3ccc(O)c(C)c3)OS(=O)(=O)c3ccccc32)ccc1O [Cresol Red]	7.2-8.8 pH	–
CN(C)c1ccc(C(=C2C=CC(=[N+](C)C)C=C2)c2ccc(N(C)C)cc2)cc1 [Gentian violet(Methyl violet 10B), Gentian violet]	0.0-2.0 pH	–
CN(C)c1ccc(C(c2ccccc2)c2ccc(N(C)C)cc2)cc1 [Leucomalachite green]	–	Transition pH range (first transition): 0.0-2.0 pH; Transition pH range (second transition): 11.6-14.0 pH
CN(C)c1ccc(N=Nc2ccc(S(=O)(=O)[O-])cc2)cc1.[Na+] [Methyl orange]	3.1-4.4 pH	–
CN(C)c1ccc(/N=N/c2ccccc2C(=O)O)cc1 [Methyl red]	–	Transition pH range (colour change of indicator, high pH color green): 4.5-5.2 pH; Transition pH range (colour change of indicator, high pH color yellow): 4.4-6.2 pH
CN(C)c1ccc(N=Nc2ccccc2)cc1 [Methyl yellow]	2.9-4.0 pH	–
O=C1OC(c2ccc(O)c3ccccc23)(c2ccc(O)c3ccccc23)c2ccccc21 [Naphtholphthalein]	7.3-8.7 pH	–
Cc1cc2nc3ccc(N(C)C)cc3nc2cc1N.Cl [Neutral red]	6.8-8.0 pH	–
O=C1OC(c2ccc(O)cc2)(c2ccc(O)cc2)c2ccccc21 [Phenolphthalein]	8.3-10.0 pH	–
Cc1cc(O)c(C(C)C)cc1C1(c2cc(C(C)C)c(O)cc2C)OS(=O)(=O)c2ccccc21 [Thymol blue]	–	Transition pH range (first transition): 1.2-2.8 pH; Transition pH range (second transition): 8.0-9.6 pH
Cc1cc(O)c(C(C)C)cc1C1(c2cc(C(C)C)c(O)cc2C)OC(=O)c2ccccc21 [Thymolphthalein]	9.3-10.5 pH	–
Azolitmin	4.5-8.3 pH	–
